Entries after “also recorded” stand apart in the source; their conditions may differ.
Columns and labels:
[1] = test system: NKT cells; test: Serum IgE and IgG2c before and 10 days after a single i.p. glycolipid injection; type: in vivo, C57BL/6 mice
Method: In a separate experiment, mean serum IgE levels of groups of three C57BL/6 mice were measured before or 10 days after a single i.p. injection of 0.1 μg α Galcer alone, 100 μg β Galcer alone, or 100 μg of β Galcer injected 1 hour before 0.1 μg α Galcer. […] The bars show means of triplicate determinations, and the brackets show standard deviations. […] We conclude that β Galcer blocks the increase in serum IgE levels induced by α Galcer. No significant change is seen with the control IgG2c expression.

[2] = test system: NKT cells; test: Serum IFN-γ and IL-4 (ELISA) after i.p. glycolipid injection; NKT cell activation in vivo; parameters: species or system C57BL/6 mice; details: 6 hours
Method: The i.p. injection of a galactosyl ceramide (obtained from Brigham Young University, Provo, Utah) into C57BL/6 mice increases serum levels of IL-4 and IFN-γ by selectively activating NKT cells. Injection of C12 β galactosyl ceramide (Avanti Lipids, Inc.) i.p. antagonizes the ability of α galactosyl ceramide to raise the levels of IL-4, interferon-gamma, and IgE in the serum of these mice.
Male C57BL/6 mice of about 8 weeks of age were given either 100 μg of β galactosyl ceramide (β Galcer) i.p., 0.1 μg of α galactosyl ceramide (α Galcer) i.p., 100 μg β Galcer i.p. either 1 hour before or at the same time as 0.1 μg α Galcer i.p., or no treatment. β-Galcer was obtained from Avanti Lipids Inc. Glycolipids were in aqueous solutions with PBS. Cytokine levels were determined by ELISA as previously described by Zeng et al. (2003), supra.

[3] = test system: NZBxNZW mouse; test: Murine model for systemic lupus erythematosus, proteinuria; type: in vivo; details: high dose (100 μg/mouse) injected twice weekly, at 38 weeks; PBS control approximately 30%
Method: In a murine model for systemic lupus erythematosus, the NZBxNZW mouse, animals were injected twice weekly with one of: PBS, 50 μg/mouse β-galactosyl ceramide, or 100 μg/mouse β-galactosyl ceramide. The animals were analyzed for proteinuria, which is an indication of the development of lupus. In the control group of 15 mice, at 38 weeks, approximately 30% of the mice were without proteinuria, while approximately 80% of the mice treated with the high dose of β-galactosyl ceramide were without proteinuria.

[4] = test system: OVA-immunized BALB/c mice; test: OVA/alum induced AHR, murine model of asthma; type: in vivo
Method: (§1) In murine model of asthma, β-GalCer was administered to OVA-immunized BALB/c mice, or mice with α-GalCer induced airway hyperresponsiveness (AHR).
(§2) Immunizations. BALB/c mice were primed in the footpads with OVA (100 μg/mouse) adsorbed to 200 μg of alum (Al[OH]3). Mice were challenged with 50 μg OVA in 50 μl NaCl 0.9% intranasally 7, 8, and 9 days later. One day after the last intranasal challenge with OVA, airway hyperreactivity was measured from conscious mice after inhalation of increasing concentrations of methacholine in a whole body plethysmograph Immunization with α-GalCer was performed as described.
Cytokine ELISA. ELISAS were performed as previously described Macaulay et al. (1998) J. Immunol. 160:1694-1700. The antibody pairs used were as follows, listed by capture/biotinylated detection: IL-4, BVD4-1D11/BVD6-24G2; IFN-γ, R4-6A2/XMG1.2. Recombinant cytokine were used as standards, with curves generated in 1:2 dilutions from […] to 39 pg/ml for IL-4, and 20-2, 156 ng/ml for IFN-γ.
Measurement of anti-OVA antibody isotypes. Mice were bled at the time of sacrifice and OVA-specific antibody was measured using a modified antigen-specific ELISA. For measurement of OVA specific IgG, plates were coated overnight with 5 μg/ml OVA. After washing and blocking, serial diluted sera were added to the plates. Following overnight incubation, the plates were developed using HRPO-conjugated goat anti-IgG subclass-specific antibodies (Southern Biotechnology Associates, Birmingham, Ala.). After additional washing, OPD substrate was added, the plates developed and the OD determined at 492 nm Anti-OVA IgG1 mAb 6C1 and anti-OVA IgG2a mAb 3A11 were used as standards for quantitation of each IgG subclass. Determination of OVA-specific IgE was performed by ELISA, using rat anti-mouse IgE mAb EM95 (5.0 μg/ml) to coat plates. After the samples were applied and incubated overnight, plates were washed and biotinylated OVA (10 μg/ml) was added. Two hours later, plates were washed and HRPO-conjugated streptavidin (Southern Biotechnology Associates) was added. Plates were developed with OPD substrate and the OD determined at 492 nm Sera from mice hyperimmunized with OVA in alum was quantitated for IgE and used as standard for the OVA-specific IgE ELISA.
(§3) Measurement of Airway Responsiveness. Airway responsiveness was assessed by methacholine-induced airflow obstruction from conscious mice placed in a whole body plethysmograph (model PLY 3211, Buxco Electronics Inc., Troy, N.Y.). Pulmonary airflow obstruction was measured by Penh using the following formula:
(§4) [formula] where Penh=enhanced pause (dimensionless), Te=expiratory time, RT=relaxation time, PEF=peak expiratory flow (mI/s), and PIF=peak inspiratory flow (mI/s) (Hamelmann et al. (1997) Am. J. Respir. Crit. Care Med. 156:766-75. Enhanced pause (Penh), minute volume, tidal volume, and breathing frequency were obtained from chamber, pressure, measured with a transducer (model TRD5100) connected to preamplifier modules (model MAX2270) and analyzed by system XA software (model SFT 1810). Measurements of methacholine responsiveness were obtained by exposing mice for 2 min to NaCI 0.9%
(§5) Collection of BAL Fluid and Lung Histology. Animals were injected i.p. with a lethal dose of phenobarbital (450 mg/kg). The trachea was cannulated, and the lung was then lavaged with 0.8 ml of PBS three times, and the fluid pooled. Cells in the lavage fluid were counted using a hemocytometer and BAL cell differentials were determined on slide preparations stained with Hansel Stain (Lide Laboratories, Florissant, Mo.). At least 200 cells were differentiated by light microscopy based on conventional morphologic criteria. In some animals, no BAL was performed but lungs were removed, washed with PBS, fixed in 10% formalin and stained with hematoxylin and eosin.
(a) AHR was measured on day 10. C12-β-GalCer was administered i.v. (100 μg) 1 day prior to OVA/alum sensitization and 6 hours prior to each i.n. challenge (100 μg). […]

[5] = test system: NKT cells; test: Oral administration of β-galactosyl ceramide: serum cytokines and liver NKT cell markers; type: in vivo, mouse
Method: Doses of β-galactosyl ceramide ranging from 100-800 μg/mouse were administered orally. Cytokine levels of IFN-γ and IL-4 were determined by ELISA as previously described by Zeng et al. (2003), supra. from serum levels.

[6] = test system: mice with α-GalCer induced airway hyperresponsiveness (AHR); test: α-GalCer induced airway hyperresponsiveness (AHR), methacholine whole body plethysmograph; type: in vivo, BALB/c mice
Method: as §1, §2, §3, §4, §5
A minimum of 4 mice per group were used.

[7] = glycolipid alone i.p. (100 μg β Galcer or 0.1 μg α Galcer), untreated about 50 pg/ml
[8] = C12-β-GalCer treated group versus OVA/alum positive control
[9] = C12-β-GalCer treated group, four days in culture with 62.5 μg/ml OVA

**Q.** CCCCCCCCCCCCCCCCCCCCCCCCCC(=O)N[C@@H](CO[C@H]1O[C@H](CO)[C@H](O)[C@H](O)[C@H]1O)[C@H](O)[C@H](O)CCCCCCCCCCCCCC [α Galcer, α galactosyl ceramide, reference compound] was tested. Which “rise of serum IgE level” value ([1]; 0.1 μg α Galcer alone i.p., 10 days after versus before) did it give?
**A.** about three fold

**Q.** And the “serum IL-4 level” value ([2]; 0.1 μg α Galcer alone i.p.)?
**A.** 1000 pg/mL

**Q.** What about the “increase of serum IL-4 level” value ([2]; 0.1 μg α Galcer alone i.p., versus untreated) of the same compound?
**A.** about 10 fold

**Q.** What about the “serum IFN-γ level” value [2, 7] of the same compound?
**A.** increased the level more than two fold

**Q.** Which results are given for CCCCCCCCCCCCC/C=C/[C@@H](O)[C@H](CO[C@@H]1O[C@H](CO)[C@H](O)[C@H](O)[C@H]1O)NC(=O)CCCCCCCCCCC [β Galcer, C12 β galactosyl ceramide]?
**A.** mice without proteinuria [3]: approximately 80%; AHR ([4]; C12-β-GalCer 100 μg i.v. 1 day prior to OVA/alum sensitization and 6 hours prior to each i.n. challenge, AHR day 10): reduce AHR; also recorded: reduces OVA/alum induced AHR; eosinophilic infiltration of the lungs (histology) [4, 8]: reduced but present; neutrophilia in the lungs (histology) [4, 8]: possibly more neutrophilia; serum OVA-specific IgE ([4]; C12-β-GalCer treated group, 100 μg i.v.): reduced; IFN-γ produced by lymph node cells [4, 9]: slightly more IFN-γ; IL-4 produced by lymph node cells [4, 9]: less IL-4; staining for NKT cell markers in the liver ([5]; oral administration, FIG. 5): decreased staining for NKT cell markers in the liver; serum IL-4 level ([5]; oral, 100-800 μg/mouse): A similar pattern was observed; serum IFN-γ level ([5]; oral, 100-800 μg/mouse, 24 hours after administration): no increase in serum levels at any dose; synthesis of IgG2c (control) ([1]; treatment with β-Galcer, FIG. 1D): not affected; AHR ([6]; 50 μg i.n. and i.v. 2 hours prior to 0.5 μg α-GalCer i.n., 24 hours AHR): greatly reduces 24 hours AHR; AHR ([6]; 100 μg C12-β-GalCer i.v. 2 hours prior to 1.5 μg α-GalCer i.n., AHR at 24 hours): greatly reduces AHR; also recorded: blocks α-GalCer induced AHR; AHR induced by the agent itself ([6]; C12-β-GalCer administered i.n.): induces mild AHR; AHR induced by the agent itself ([6]; C12-β-GalCer i.v. alone): does not induce any AHR; peri-bronchiolar eosinophilic inflammation (histology) ([6]; C12-β-GalCer treatment): reduced peri-bronchiolar eosinophilic inflammation; serum IFN-γ ([6]; following α-GalCer induced AHR): more serum IFN-γ; lung inflammation (histology) ([6]; i.v. injection of C12-β-GalCer by itself): does not result in any lung inflammation; serum IL-4 level ([2]; 100 μg β Galcer alone i.p., untreated about 100 pg/ml): did not increase the level; serum IL-4 level ([2]; 100 μg β Galcer and 0.1 μg α Galcer given at the same time): about 250 pg/ml; serum IFN-γ level ([2]; 100 μg β Galcer i.p. 1 hour before 0.1 μg α Galcer i.p.): below 40 pg/ml; serum IFN-γ level ([2]; 100 μg β Galcer i.p. at the same time as 0.1 μg α Galcer i.p.): below 40 pg/ml; increase of serum IL-4 induced by α Galcer ([2]; 100 μg β Galcer one hour before 0.1 μg α Galcer): completely blocked; serum IFN-γ level [2, 7]: did not increase the level

Source: patent US8679499B2, “Methods for relieving asthma-associated airway hyperresponsiveness” (The Board of Trustees of the Leland Stanford Junior …, priority 2004, dated 2014)
